Values of other authors in PMC10386414 (Molecules, 2023).

How the values were obtained:
[1] = earlier work, reference not given
MOR [2] = system: MOR; parameters: method as in PMID 17625813; conditions: receptor binding assay
[3] = parameters: method as in PMID 37381112; conditions: in vivo
[4] = parameters: method as in PMID 37381112; conditions: depending on the animal species used and the pain stimulus
MOR [5] = system: MOR; parameters: method as in PMID 33479684; conditions: cAMP assay, acted as a partial agonist

Compound	potency in vivo relative to morphine [1]	MOR affinity (MOR [2])	locomotor effects [3]	antinociceptive activity [4]	%Emax (efficacy) (MOR [5])	EC50 (MOR [5]; read-out: EC50 (potency))
Oc1cccc(C23CCCC(C2O)N(CCc2ccccc2)CC3)c1 [1R,5R,9S-OH compound]	about 500 times	sub-nanomolar	–	–	–	–
CCC[C@H]1[C@@H]2CCC[C@@]1(c1cccc(O)c1)CCN2CCc1ccccc1 [compound 16]	–	–	unlike morphine in its locomotor effects	some antinociceptive activity	45%	1.42 nM
